This note sets out measurements from patent US9868763B2, “Modulators of protease activated receptors” (The University of Queensland, priority 2011, dated 2018).

Structures are written as SMILES. Entries after “also recorded” stand apart in the source; their conditions may differ. Like-named read-outs stand apart in the source and are kept apart here.

Data set [1] is described as follows: Pharmacokinetics, four consecutive daily oral doses. It counts as in vivo, Wistar rat. As to conditions: 10 mg/kg/day p.o. for 4 days. Here is the method: Male Wistar rats were surgically implanted with a jugular vein catheter. Blood samples (heparinised) were collected from the catheter of an unanaesthetised, unrestrained rat, 5 min prior to PAR2 antagonist 52 administration (10 mg/kg p.o.) and 30 min, 1-6, 8 and 24 h post-administration. Rats not implanted with a catheter were given PAR2 antagonist 52 (10 mg/kg/day p.o.) four days consecutively (n=6). On the fifth day, plasma, cerebrospinal fluid (CSF), paw tissue and intraperitoneal adipose were collected for LCMS analysis.

The test system of data set [2] is TNBS-induced chronic colitis. As to the kind of experiment: TNBS-induced chronic colitis model. It counts as in vivo, rat. The following applies: sulfasalazine 100 mg/kg/day p.o. Here is the method:
On day 0, rats were weighed, given respective treatments of either sulfasalazine (100 mg/kg in olive oil p.o.), compound 52 (10 mg/kg in olive oil), or vehicle (500 l olive oil p.o.), and fasted for 24 h with water supplied ad libitum. The next day (day 1), rats were weighed, dosed with respective compound, and anesthetized with isofluorane. A polyethylene catheter was inserted intrarectally (8 cm). Control and drug-treated animals received an intracolonic dose of TNBS (80 mg/kg in saline and 250 l, 50% ethanol in water) (Fiorucci at al., 2001). Sham animals received vehicle only, with TNBS replaced by equivolume water. Rats were maintained in an inclined position (40°) for 30 min, then allowed to recover with food and water supplied. Rats were dosed daily with the respective compound, weighed, and scored for general health and disease progression. All rats were sacrificed on day 8 of experimentation unless they were sacrificed earlier. Disease progression and post-mortem colonic histopathology was scored by the following methods. PAR2 and tryptase co-localization were investigated by using immunohistochemistry.
DAI for both acute and chronic models was assessed and scored by an expert blinded to treatments. Scores incorporated mobility, gastrointestinal pathology, discomfort, and generalized sickness behaviour criteria (each scored 0-3). Any animal that reached stage 3 in any criteria was euthanized by CO2 inhalation and recorded as a disease-related mortality. Scores were summed and expressed as total disease score (maximum 12). DAI was measured at endpoint only (10 h) in the acute study and daily in the chronic TNBS study.
Colons were dissected post-mortem and given a macroscopic disease score based on that described previously (Bobin-Dubigeon et al., 2001) with some minor alterations (maximal score 14). The entire colon length was removed between the ileocolic and colorectal junction. Length and maximal distension width were measured. Sections of affected colon were taken for biochemical analysis, histology, and wet/dry weight.

The target of data set [3] is T1, β-tryptase (Homo sapiens, UniProt Q15661).
T1 construct: purchased Promega
T1 sequence (Q15661 31-275): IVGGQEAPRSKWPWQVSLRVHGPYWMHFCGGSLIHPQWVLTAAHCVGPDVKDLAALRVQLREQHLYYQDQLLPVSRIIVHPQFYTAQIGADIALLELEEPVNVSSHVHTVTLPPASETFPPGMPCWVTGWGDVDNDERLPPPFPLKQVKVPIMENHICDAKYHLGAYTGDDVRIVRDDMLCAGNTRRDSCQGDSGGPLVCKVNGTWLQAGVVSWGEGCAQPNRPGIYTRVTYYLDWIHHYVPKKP
As to the kind of experiment: Tryptase activity assay. It is filed as biochemical. As to conditions: 20 μM; substrate tosyl-Gly-Pro-Arg-pNA. Here is the method: β-tryptase (10 ng/μL, 100 μL) was incubated±PAR2 antagonist 52 (20 μM) for 15 min, to which substrate tosyl-Gly-Pro-Arg-pNA (250 μM) was added. Absorbance was measured as optical density at 405 nm (FLUOstar Optima, BMG labtech, Aust.) every 41 s for 1 h.

In data set [4] the test system is 2furoyl-LIGRLO-NH2-induced paw oedema. The data set is described as follows: PAR2 agonist-induced paw oedema. It is filed as in vivo, Wistar rat. Here is the method: The methods used are based on those previously described (Kelso, E. B., et al. Arthritis Rheum 2007, 56, 765-71; Kelso, E. B., et al. J Pharmacol Exp Ther 2006, 316, 1017-24; and Vergnolle, N. J Immunol 1999, 163, 5064-9). Male Wistar rats (n=3 per group) are used. Briefly, rats are given either 5 or 10 mg/kg of a compound of the present invention (p.o. via gavage in olive oil, approx. 500 μL, weight adjusted). Control animals receive only olive oil (500 μL p.o.). Two hours later, the PAR2 agonist 2-furoyl-LIGRLO (350 μg/paw in saline, 100 μL) is injected into the plantar surface (i.pl.) of the right paw pad using a 30 G needle. The left paw acts as a control, receiving saline only. Paw thickness and width are measured after 30 minutes and hourly using digital calipers (World Precision Instruments, USA) and swelling is calculated in area (mm^2; thickness multiplied by width) and expressed as a percentage change from baseline of each individual paw.
Based on previous methods (Kelso E B et al., J Pharmacol Exp Ther 2006, 316(3):1017-24; Suen J Y et al., Br J Pharmacol 2011, doi: 10.1111/j.1476-5381.2011.01610.x.), PAR2 antagonist 52 (10 mg/kg s.c.; n=4), ENMD-1068 (100 mg/kg s.c.; n=4) or vehicle control (DMSO s.c.; n=2) were administered to male Wistar rats. Baseline paw thickness and width were measured using digital calipers (World Precision Instruments, USA) expressed in area (mm^2; thickness×width). Fifteen minutes later, 2Furoyl-LIGLRO-NH2 (350 μg/paw in 100 μL saline) was injected into of the right hind paw pad (intraplantar, i.pl.). The left hind paw acted as a control, receiving saline only. In a separate experiment, vehicle (500 μL olive oil) versus PAR2 antagonist 52 (10 mg/kg p.o. in 500 μL olive oil) only were administered orally to two groups of rats (4 per group). Two hours later, β-tryptase (human recombinant lung, 20 μg in 100 μL saline) was injected into the right hind paw pad (vehicle in left for control) of all animals in each group. In all experiments, paw swelling was measured and expressed in area (mm^2; thickness×width) and plotted as % change from baseline of each individual paw.

As for `CC[C@H](C)[C@@H](NC(=O)[C@H](CC1CCCCC1)NC(=O)c1ccno1)C(=O)N1CCC2(C=Cc3ccccc32)CC1` [Compound 52], the “Cp after fourth dose greater than the single-dose Cp at 24 h” value in data set [1] is listed as about 30%. In addition, the concentration at 5 day is under 1.8 nM in data set [1] (Wistar, rat, cerebrospinal fluid, oral, read-out: concentration in cerebral spinal fluid (none detected, LCMS/MS detection limit)) and 150 ± 20 nM in data set [1] (Wistar, rat, intraperitoneal adipose, oral, read-out: concentration in intraperitoneal adipose). Also, the Kp at 24 h in data set [1] (Wistar, rat, intraperitoneal adipose / plasma, oral, read-out: intraperitoneal adipose concentration as share of Cp at 24 h) is about 0.3. In addition, the concentration at 24 h in data set [1] (Wistar, rat, plasma, oral, read-out: plasma concentration Cp at 24 h after the fourth dose) worked out at 500 ± 100 nM. In data set [2] (52 10 mg/kg/day p.o.), the “chronic colitis: mortality and pathology (colon obstruction, ulceration, wall thickness, myeloperoxidase release)” value is on record as “ameliorated; also recorded: more effectively than the clinically used drug sulfasalazine”. The same compound returned a TNBS-mediated mortality in data set [2] (52 10 mg/kg/day) of 8.3%. Moreover, the “DAI compared with TNBS-controls” value in data set [2] (from day 2 onward, 52 10 mg/kg/day) is on record as “marked improvements in DAI; also recorded: almost complete recovery”. Further, in data set [3], the “inhibition of proteolytic activity of β-tryptase” value is “did not inhibit; also recorded: not inhibited”. For the same compound, the “paw oedema induced by other PAR2 agonists, e.g. trypsin, SLIGRL-NH2 and GB110” value in data set [4] (recently found) is given as “inhibit paw oedema”. Besides, in data set [4] (s.c., 52 10 mg/kg, ENMD-1068 100 mg/kg, agonist 350 μg/paw), the “paw oedema induced by 2furoyl-LIGRLO-NH2” value is on record as “reduced the paw oedema; also recorded: strongly reduce the paw oedema”.
